The text below walks through data of patent US20240174618A1, “SUBSTITUTED (2-HETEROARYLOXYPHENYL)SULFONATES, SALTS THEREOF AND THEIR USE AS HERBICIDAL AGENTS” (Bayer Aktiengesellschaft, priority 2021, published 2024).

Holding throughout (assay type): in vivo
The test system of series [1] is Digitaria sanguinalis (DIGSA). As to the kind of experiment: C. Herbicidal pre-emergence efficacy, DIGSA. Conditions: scored after about 3 weeks. The method, boiled down: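 Pre-emergence test: formulated compounds sprayed as aqueous suspension or emulsion with 0.5% additive at 600 l/ha onto soil covering sown seeds, at rates corresponding to 320 g/ha or less. After about 3 weeks in greenhouse, efficacy scored visually as percent versus untreated controls (100% = plants dead).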

The test system of another series is Kochia scoparia (KCHSC). Briefly: E. Herbicidal post-emergence efficacy, KCHSC. In short, it runs like this:
(§1)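 Visual scoring against untreated plants was done roughly 3 weeks after spraying (0% = no effect, 100% = plants dead). Spray application at 320 g/ha or lower, 600 l/ha water with 0.5% additive, was made onto green parts of one-leaf-stage greenhouse plants grown 2-3 weeks in sandy loam.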

Series [2] relates to Triticum aestivum (TRZAS). As to the kind of experiment: D. Pre-emergence effect on useful plants, TRZAS. Conditions: useful plant. In short, it runs like this: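 Seeds sown in pots and covered with soil; WP or EC formulations sprayed on the soil surface as aqueous suspension/emulsion with 0.5% additive at 600 l/ha water. Plants grown in greenhouse; crop damage scored visually after about 3 weeks as % versus untreated controls (100% = dead, 0% = like control).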

Series [3] relates to Amaranthus retroflexus (AMARE). Briefly: B. Herbicidal post-emergence efficacy, AMARE. In short, it runs like this: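 Post-emergence foliar spray, at application rates of 1280 g/ha or less, on one-leaf-stage plants 2–3 weeks post-sowing, using aqueous WP or EC suspensions with 0.5% additive at 600 L/ha. Visual percent efficacy relative to untreated plants scored roughly 3 weeks later in the greenhouse.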

The next series has as its system Setaria viridis (SETVI). Briefly: E. Herbicidal post-emergence efficacy, SETVI. The method, boiled down:
as §1

Series [4] deals with Amaranthus retroflexus (AMARE). As to the kind of experiment: E. Herbicidal post-emergence efficacy, AMARE. In short, it runs like this:
as §1

Series [5] has as its system Abutilon theophrasti (ABUTH). Briefly: E. Herbicidal post-emergence efficacy, ABUTH. The method, boiled down:
as §1

The test system of a further series is Lolium rigidum (LOLRI). Briefly: A. Herbicidal pre-emergence efficacy, LOLRI. Conditions: dosage 1280 g/ha. The method, boiled down:
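Applied before emergence onto covering soil at rates of 1280 g/ha or less, using 600 L/ha spray water with 0.5% additive. Scoring: visual % efficacy after ~3 weeks, greenhouse.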

Another series deals with Veronica persica (VERPE). Briefly: E. Herbicidal post-emergence efficacy, VERPE. In short, it runs like this:
as §1

Consider `Cc1cccc(Oc2ncc(Cl)cn2)c1OS(=O)(=O)CC1CC(F)(F)C1` [Example I-74], for which the “Pre-emergence efficacy against DIGSA” value in series [1] (80 g/ha) and in series [1] (320 g/ha) was 100% each time. In addition, in the series on Kochia scoparia (KCHSC) (application rate 320 g/ha), the “Post-emergence efficacy against KCHSC in %” value stood at 80%. For the same molecule, the “Pre-emergence efficacy against TRZAS in %” value in series [2] (application rate 80 g/ha) came out at 0%. Moreover, the “Post-emergence efficacy against AMARE” value in series [3] (80 g/ha), in series [3] (320 g/ha) and in series [3] (1280 g/ha) was 100% each time. For the same molecule, the “Post-emergence efficacy against SETVI in %” value with Setaria viridis (SETVI) (application rate 320 g/ha) was 90%. Further, the “Post-emergence efficacy against AMARE in %” value in series [4] (application rate 80 g/ha) is recorded as 90%; in series [4] (application rate 320 g/ha), 100%. For the same molecule, in series [5] (application rate 320 g/ha), the “Post-emergence efficacy against ABUTH in %” value is 90%. Moreover, the “Pre-emergence efficacy against LOLRI” value in the series with Lolium rigidum (LOLRI) worked out at 100%. For the same molecule, the “Post-emergence efficacy against VERPE in %” value came to 90% in the series on Veronica persica (VERPE) (application rate 80 g/ha) and 100% with Veronica persica (VERPE) (application rate 320 g/ha).
On to `O=S(=O)(CCC1CC1)Oc1c(F)cccc1Oc1ncc(Cl)cn1` [Example I-55], for which the “Pre-emergence efficacy against DIGSA” value in series [1] (80 g/ha) and in series [1] (320 g/ha) was 100% throughout. Besides, the “Post-emergence efficacy against KCHSC in %” value with Kochia scoparia (KCHSC) (application rate 80 g/ha) amounted to 80%; in the series on Kochia scoparia (KCHSC) (application rate 320 g/ha) it was 90%. In addition, in series [2] (application rate 80 g/ha), the “Pre-emergence efficacy against TRZAS in %” value was 0%. Besides, the “Post-emergence efficacy against AMARE” value in series [3] (80 g/ha), in series [3] (320 g/ha) and in series [3] (1280 g/ha) was 90% in each case. Further, the “Post-emergence efficacy against SETVI in %” value came to 80% in the series with Setaria viridis (SETVI) (application rate 80 g/ha) and 90% with Setaria viridis (SETVI) (application rate 320 g/ha). Also, the “Post-emergence efficacy against AMARE in %” value is reported as 90% in [4] (application rate 80 g/ha) and 100% in series [4] (application rate 320 g/ha). The “Post-emergence efficacy against ABUTH in %” value in series [5] (application rate 320 g/ha) came to 100%. The “Pre-emergence efficacy against LOLRI” value in the series on Lolium rigidum (LOLRI) was found to be 100%. For the same molecule, the “Post-emergence efficacy against VERPE in %” value in the series on Veronica persica (VERPE) (application rate 80 g/ha) and in the series on Veronica persica (VERPE) (application rate 320 g/ha) was 100% throughout.
In the case of `O=S(=O)(CCCC(F)(F)F)Oc1c(Cl)cccc1Oc1ncc(Br)cn1` [Example I-34], the “Pre-emergence efficacy against DIGSA” value in series [1] (80 g/ha) is reported as 90%; in series [1] (320 g/ha), 100%. Also, the “Post-emergence efficacy against KCHSC in %” value with Kochia scoparia (KCHSC) (application rate 80 g/ha) and in the series on Kochia scoparia (KCHSC) (application rate 320 g/ha) was 100% each time. Besides, the “Pre-emergence efficacy against TRZAS in %” value in series [2] (application rate 80 g/ha) and in [2] (application rate 320 g/ha) was 0% throughout. Also, the “Post-emergence efficacy against AMARE” value in series [3] (80 g/ha), in series [3] (320 g/ha) and in [3] (1280 g/ha) was 100% throughout. In addition, the “Post-emergence efficacy against SETVI in %” value in the series on Setaria viridis (SETVI) (application rate 80 g/ha) and in the series on Setaria viridis (SETVI) (application rate 320 g/ha) was 90% throughout. Also, the “Post-emergence efficacy against AMARE in %” value in series [4] (application rate 80 g/ha) and in [4] (application rate 320 g/ha) was 100% in each case. Moreover, the “Post-emergence efficacy against ABUTH in %” value in series [5] (application rate 80 g/ha) and in [5] (application rate 320 g/ha) was 80% each time. Besides, the “Post-emergence efficacy against VERPE in %” value in the series with Veronica persica (VERPE) (application rate 80 g/ha) and in the series on Veronica persica (VERPE) (application rate 320 g/ha) was 100% each time.
As to `N#Cc1cccc(Oc2ncc(Cl)cn2)c1OS(=O)(=O)CCCC(F)(F)F` [Example I-81], the “Pre-emergence efficacy against DIGSA” value in series [1] (80 g/ha) and in series [1] (320 g/ha) was 100% throughout. Further, the “Post-emergence efficacy against KCHSC in %” value in the series on Kochia scoparia (KCHSC) (application rate 80 g/ha) and in the series on Kochia scoparia (KCHSC) (application rate 320 g/ha) was 100% throughout. For the same molecule, the “Pre-emergence efficacy against TRZAS in %” value in [2] (application rate 80 g/ha) is given as 0%. Also, the “Post-emergence efficacy against SETVI in %” value in the series on Setaria viridis (SETVI) (application rate 320 g/ha) was determined as 100%. In addition, the “Post-emergence efficacy against AMARE in %” value in series [4] (application rate 80 g/ha) and in [4] (application rate 320 g/ha) was 100% each time. The “Post-emergence efficacy against ABUTH in %” value in [5] (application rate 80 g/ha) came to 80%; in series [5] (application rate 320 g/ha) it was 90%. In addition, the “Post-emergence efficacy against VERPE in %” value with Veronica persica (VERPE) (application rate 80 g/ha) and in the series on Veronica persica (VERPE) (application rate 320 g/ha) was 100% in each case.
On to `O=S(=O)(CCC(F)=C(F)F)Oc1c(F)cccc1Oc1ncc(Cl)cn1` [Example I-70], for which the “Pre-emergence efficacy against DIGSA” value in series [1] (80 g/ha) and in series [1] (320 g/ha) was 100% throughout. Besides, the “Post-emergence efficacy against KCHSC in %” value is recorded as 90% in the series on Kochia scoparia (KCHSC) (application rate 80 g/ha) and 100% with Kochia scoparia (KCHSC) (application rate 320 g/ha). The “Pre-emergence efficacy against TRZAS in %” value in series [2] (application rate 80 g/ha) turned out to be 0%. Moreover, the “Post-emergence efficacy against SETVI in %” value in the series with Setaria viridis (SETVI) (application rate 80 g/ha) and with Setaria viridis (SETVI) (application rate 320 g/ha) was 100% in each case. Besides, the “Post-emergence efficacy against AMARE in %” value in [4] (application rate 80 g/ha) and in series [4] (application rate 320 g/ha) was 100% each time. The “Post-emergence efficacy against ABUTH in %” value in series [5] (application rate 80 g/ha) turned out to be 80%; in series [5] (application rate 320 g/ha) it was 90%. Besides, the “Post-emergence efficacy against VERPE in %” value in the series on Veronica persica (VERPE) (application rate 80 g/ha) and with Veronica persica (VERPE) (application rate 320 g/ha) was 100% throughout.
